The nature of data set [1]: Solubility in water (description of test compound). Type of data set: physicochemical.
Data set [2] relates to KM mice (tail suspension model of behavioral despair). As to the kind of experiment: Tail suspension test after single intragastric (oral) administration. Type of data set: in vivo. Conditions: tail suspension test 1 h after administration, last 4 min, mean ± SEM. As to the method: (§1) The experimental animals were male SPF grade KM mice purchased from Kunming Medical University, weighed 21-24 g, certificate no. SCXK(Dian)K2015-0002. The experimental animals were bred in individually ventilated cages (IVCs) in animal room in Dianqing Biotechnology, Ltd., Yunnan (facility no. 13-11-078 and 13-11-079; manufacture date: Nov. 24, 2013). The room temperature was controlled at 22-24° C. with humidity at 40-70% and 12-hour light/dark cycle (7:00 am/19:00 pm). The cages and padding were changed twice a week. The raising method was group raising and there were 10 mice accommodated in each cage. The feed was sterilized feed from Jiangsu Xietong Medical Bioengineering, Ltd., certificate no.: (2014)01008. Feed was supplied once daily with free access . Tap water was supplied in boxes with free access.
A. Behavioral testing was performed in different treatment groups (1.0 mg/kg, 5.0 mg/kg, 10.0 mg/kg, 15.0 mg/kg, 30.0 mg/kg) 1 h after intragastric (i.g.) administration of the compound of formula 1;
B. In the negative control group receiving normal saline (NS), the behavioral testing was conducted at the same time;
C. In the positive control group receiving imipramine (IMI; 15 mg/kg), the behavioral testing was conducted at the same time;
Route of administration: The test compound of formula 1, normal saline or imipramine was administered by intragatric administration according to the experimental design.
Time of administration: The animals were accommodated to the experimental environment for 1 hour, administrated by intragatric administration, and subjected to tail suspension test 1 hour after the administration.
Test criterion: The mice were subjected to a 6-minute tail suspension test, and the cumulative time of immobility in the first 2 minutes and the last 4 minutes was recorded. The criterion for immobility is that the mouse stops struggling and remains steady.
(§2) A depression model of behavioral despair, ie. tail suspension model, was used. Animals were accommodated to the company's breeding environment for 1 day. During the adaptation, animals with non-smooth and unclean hair, high alertness or aggressivity were excluded.
(§3) Animals were accommodated to the experimental environment for 1 hour, weighed, and randomized according to the body weight into a normal saline control group, an imipramine control group and treatment groups with different doses.
(§4) In the tail suspension test, animals in all groups were administered with corresponding drugs by a single intragastric administration. 1 h after the administration, tails of mice were fixed with medical tape at about 1-2 cm from the end, such that the mice were hanged in the tail suspension box with the heads about 10 cm above the bottom of the box. The observation started immediately after hanging. In the 6-minute observation, the cumulative time of immobility in the first 2 minutes and the last 4 minutes was recorded. A video was recorded with obviously contrasted background with the hair color of the mice, for example, black background was used for white mice.
(§5) The cumulative time of immobility within the last 4 minutes was compared between the test compound groups and the normal saline group using SPSS 11.0 software. One-way analysis of variance (ANOVA) was used for comparison among multiple groups, and independent sample T test was performed for comparisons in pairs. P <0.05 indicates a statistically significant difference. All statistical diagrams were plotted in mean ±SEM using Origin 8.0 software.

For data set [3] the test system is unchanged. Put plainly: Tail suspension test after single intraperitoneal injection. The class given is in vivo. Conditions: tail suspension test 0.5 h after administration, last 4 min, mean ± SEM. As to the method:
as §1, with “access.” for “access .”
A. Behavioral testing was performed in different treatment groups (1.0 mg/kg, 5.0 mg/kg, 10.0 mg/kg, 20.0 mg/kg) 0.5 h after intraperitoneal (i.p.) injection of the compound of formula 1;
B. In the control group receiving normal saline (NS), the behavioral testing was conducted at the same time;
C. In the control group receiving imipramine (IMI; 15 mg/kg), the behavioral testing was conducted at the same time;
Route of administration: The test compound of formula 1, normal saline or imipramine was administered by intraperitoneal injection according to the experimental design.
Time of administration: The animals were accommodated to the experimental environment for 1 hour, administrated by intraperitoneal injection and subjected to tail suspension test 0.5 hour after the administration.
Test criterion: The mice were subjected to a 6-minute tail suspension test, and the cumulative time of immobility in the first 2 minutes and the last 4 minutes was recorded. The criterion for immobility was that the mouse stops struggling and remains steady.
as §2, §3
as §4, with “groups for tail suspension test” for “groups”, “intraperitoneal injection. 0.5” for “intragastric administration. 1”
as §5

Another data set has as its system NMDA receptor. Put plainly: Whole-cell NMDAR current (NMDAR-EPSC) recording in hippocampal CA1 pyramidal cells of brain slices. Type of data set: cell-based, mice. Conditions: hippocampal CA1 pyramidal cells at +40 mV, last 10 min of 20 min. As to the method: Male C57BL/6 mice, aged 3-9 weeks, were purchased from Beijing Vital River Laboratory Animal Technology Co., Ltd. (Beijing, China). The animals were bred at 23 ±1° C. The room temperature was controlled at 22-24° C. with humidity at 40-70% and 12-hour light/dark cycle (7:00 am/19:00 pm).
A. The baseline whole-cell NMDAR current was recorded in 10 minutes before the compound of formula 1 (0.76, 3.8 mM/L) was dissolved in artificial cerebrospinal fluid (vehicle) and added with the brain slice circulation fluid.
B. An identical volume of artificial cerebrospinal fluid (vehicle) was added with the brain slice circulation fluid.
Treatment: The brain slice circulation fluid was directly added.
Time of treatment: 10 minutes after baseline recording.
Test item: depolarization voltage-induced whole-cell NMDAR receptor currents.
Hippocampal brain slices: The animals were anesthetized with isoflurane and the brains were collected quickly. […]
Whole-cell NMDAR current recording: NMDAR whole cell EPSC recording was performed in hippocampal CA1 pyramidal cells. […] The electrical signal in whole cells was recorded using a Clampfit 10.3 software (Axon Instruments) equipped with an Axopatch-700B amplifier (Axon Instruments, Foster City, Calif.) and a Digiclata 1440A digital-to-analog converter, with filtering set at 2.8 kHz and sampling at 10 kHz. […]

Consider `Cc1ccc(O[C@@H]2OC(CO)[C@@H](O)[C@H](O)C2O)cc1O[C@@H]1OC(CO)[C@@H](O)[C@H](O)C1O` (some centres unmarked) [Compounds of formula 1], for which the Solubility in water entry in data set [1] is on record as “easily soluble in water”. The “Time of immobility (% of NS)” value in data set [2] (1 mg/kg i.g.) is 87.14 ± 11.27 % of NS; in data set [2] (5 mg/kg i.g.) it was 72.67 ± 7.89 % of NS; in data set [2] (10 mg/kg i.g.), 66.86 ± 8.80 % of NS; in data set [2] (15 mg/kg i.g.), 68.33 ± 7.17 % of NS; in data set [2] (30 mg/kg i.g.) it was 77.38 ± 6.00 % of NS; in data set [3] (1 mg/kg i.p.), 104.02 ± 16.80 % of NS. Moreover, the entries for the “Time of immobility (% of NS)” value in data set [3] (5 mg/kg i.p.), in data set [3] (10 mg/kg i.p.) and in data set [3] (20 mg/kg i.p.) were 72.12 ± 8.57 % of NS, 60.44 ± 7.53 % of NS and 104.66 ± 14.75 % of NS, respectively. Also, the “NMDAR current (% of Baseline)” value is reported as 108.80 ± 5.86 % of Baseline with NMDA receptor (0.76 mM/L in circulating artificial cerebrospinal fluid) and 155.53 ± 20.85 % of Baseline in the data set with NMDA receptor (3.8 mM/L in circulating artificial cerebrospinal fluid).
Turning to `CN(C)CCCN1c2ccccc2CCc2ccccc21` [IMI, imipramine, reference compound], the “Time of immobility (% of NS)” value is recorded as 58.64 ± 5.42 % of NS in data set [2] (15 mg/kg i.g.) and 58.12 ± 5.66 % of NS in data set [3] (15 mg/kg i.p.).

The record behind these values is patent US20220048939A1, “AROMATIC RING COMPOUND” (HAIKOU KAIBAO INDUSTRIAL CO., LTD, priority 2019, published 2022).
